Earlier results on six compounds are cited in patent US20210319872A1, “DRUG AND DEVICE COMBINATION PRODUCTS WITH IMPROVED SAFETY AND EFFICACY PROFILES” (priority 2016, published 2021).

In series [1] the test system is subjects. Conditions: 16 subjects after 15-mg dose, pilot and main studies, FIG. 31 B.
The conditions of series [2]: patients who had been started on the drug.
The conditions of series [3]: older adults.
[4] abbreviates: Myelodysplastic syndrome, grade 3 or 4.

Like-named read-outs stand apart in the source and are kept apart here. Some results are limits rather than exact numbers.

As for `COc1ccc2c3c1O[C@H]1C(=O)CC[C@@]4(O)[C@@H](C2)N(C)CC[C@]314` [oxycodone, reference compound], in series [1], the “individual time course of pupil diameter” value is on record as “does not move into “pinpoint pupils”, overdose, or mydriasis”. Further, for the setting “in vivo”, the Abdominal pain entry was “Gastrointestinal: Abdominal pain (up to 5%), Constipation (Adults,”; the Chest pain entry is on record as “Cardiovascular: Cardiac arrest, Chest pain (less than 1%), Heart”; the Fever result was “Other: Fever (Adults, up to 5%; pediatrics, 11%)”; the Headache entry was “(Adults, 3% or greater; pediatrics, 14%), Somnolence (controlled-”. Where the note is “in vivo”, the Heart failure entry was “failure (less than 3%), Hypotension (less than 3%), Shock, ST”; the Hypersensitivity reaction result is “Immunologic: Hypersensitivity reaction (less than 3%)”; the Hypotension result is recorded as “failure (less than 3%), Hypotension (less than 3%), Shock, ST”; the Opioid withdrawal entry was “Opioid withdrawal (1% to 5%)”. Moreover, for the setting “in vivo”, the ST segment depression entry is given as “segment depression (less than 1%), Syncope (less than 1%)”; the “Serious side effect, Gastrointestinal” value was “Gastrointestinal: Bowel obstruction, Diverticulitis, Exacerbation”; the “Serious side effect, Other” value was “Other: Drug withdrawal syndrome in neonate of dependent mother,”; the “Serious side effect, Respiratory” value is reported as “Respiratory: Respiratory depression”. For the setting “in vivo”, the Somnolence result is recorded as “release, 23%; immediate-release, 3% or greater)”; the Sweating result is recorded as “(controlled-release, 5%; immediate-release, less than 3%)”; the Syncope entry is on record as “segment depression (less than 1%), Syncope (less than 1%)”.
Turning to `CC[C@H]1OC(=O)[C@H](C)[C@@H](O[C@H]2C[C@@](C)(OC)[C@@H](O)[C@H](C)O2)[C@H](C)[C@@H](O[C@@H]2O[C@H](C)C[C@H](N(C)C)[C@H]2O)[C@](C)(OC)C[C@@H](C)C(=O)[C@H](C)[C@@H](O)[C@]1(C)O` [clarithromycin], the “Digoxin toxicity, times more likely” value in series [2] is given as 12 times.
As to `[Li]` [lithium], in series [3], the clearance rate result is on record as “reduced”.
As for `Nc1cccc2c1CN(C1CCC(=O)NC1=O)C2=O` (centres unmarked) [Revlimid], the “Cataract, Grade 3 or 4” value (Multiple myeloma, grade 3.4) is given as 1.4% (grade 3.4)). Under setting [4], the Multiple organ failure is on record as 1.4%; the Pneumonitis entry is reported as “syndrome, grade 3 or 4, 1.4%), Pulmonary embolism, Grade 3 or 4”; the Pulmonary hypertension is reported as 1.4%. Also, where the note is “in vivo”, the Hepatotoxicity is listed as 15% and the Myocardial infarction was under 5%. Where the note is “listed without frequency”, the “Common side effect, Other” value is reported as “Infectious disease”; the “Serious side effect, Dermatologic” value is “Stevens-Johnson syndrome”; the “Serious side effect, Hematologic” value was “Thrombosis”; the “Serious side effect, Hepatic” value is “Liver failure”. For the setting “listed without frequency”, the “Serious side effect, Other” value is recorded as “Other: Angioedema, Multiple organ failure (Myelodysplastic” and the “Serious side effect, Renal” value is listed as “Renal: Interstitial nephritis, acute”. For the same compound, where the note is “mantle cell lymphoma”, the “Anemia, All grades” value is recorded as 31%; the “Anemia, Grade 3 or 4” value was 11%; the Arthralgia is 8%; the Asthenia is 14%. In addition, for the setting “mantle cell lymphoma”, the Backache is reported as 13%, the Constipation is reported as 16%, the Cough is recorded as 28% and the Diarrhea is given as 31%. Moreover, where the note is “mantle cell lymphoma”, the Dyspnea was 16.9%; mantle cell lymphoma, 18%), Epistaxis (Myelodysplastic; the Fatigue was 34%; the Fever was 23%; the Hypokalemia was 13%. Under “mantle cell lymphoma”, the Hypoxia result is “Respiratory: Hypoxia (Mantle cell lymphoma, 2%), Pleural”; the “Neutropenia, All grades” value is reported as 49%; the “Neutropenia, Grade 3 or 4” value is 43%; the Peripheral edema is listed as 16%. For the setting “mantle cell lymphoma”, the Pleural effusion entry is on record as “effusion (Mantle cell lymphoma, 7%), Pneumonia (Multiple”; the Pneumonia result is “mantle cell lymphoma, 14%), Pneumonitis (Myelodysplastic”; the Pruritus is listed as 17%; the Rash entry is listed as “cell lymphoma, 22%)”. Besides, under “mantle cell lymphoma”, the “Thrombocytopenia, All grades” value is listed as 36%); the “Thrombocytopenia, Grade 3 or 4” value was 28%; the Tumor flare was 10%; the Upper respiratory infection is reported as 13%. For the same compound, under “multiple myeloma”, the Arthralgia entry was “Musculoskeletal: Arthralgia (Multiple myeloma, 19%;”; the Asthenia result is “Neurologic: Asthenia (Multiple myeloma, 28.2%; myelodysplastic”; the “Atrial fibrillation, Grade 3 or 4” value was 3.7%; the Blurred vision result was “Ophthalmic: Blurred vision (Multiple myeloma, 17.3%)”. Moreover, for the setting “multiple myeloma”, the “Cataract, Grade 3 or 4” value was “Ophthalmic: Cataract, Grade 3 or 4 (Multiple myeloma, 9.6%;”; the “Congestive heart failure, Grade 3 or 4” value is listed as “failure, Grade 3 or 4 (multiple myeloma, 1.4%), Myocardial”; the Constipation result was “Gastrointestinal: Constipation (Multiple myeloma, 40.5%;”; the Cough result is recorded as “Respiratory: Cough (Multiple myeloma, 22.7%; myelodysplastic”. For the same compound, for the setting “multiple myeloma”, the Cramp is 33.4%; the Insomnia entry is reported as “Insomnia (Multiple myeloma, 27.6%; myelodysplastic syndrome,”; the Peripheral edema entry is reported as “Cardiovascular: Peripheral edema (multiple myeloma, 26.3%;”; the Pruritus result was “Dermatologic: Pruritus (Multiple myeloma, 7.6%; myelodysplastic”. Where the note is “multiple myeloma”, the Rash is at most 26.1%; the Tremor was 21.2%; the Upper respiratory infection is 15.5%), Upper respiratory infection (Multiple myeloma, 24.6%;. Further, for the setting “myelodysplastic syndrome”, the “Anemia, All grades” value was 43.8%; myelodysplastic syndrome, 11.5%; mantle cell lymphoma,; the “Anemia, Grade 3 or 4” value is given as 18.2%; myelodysplastic syndrome, 6.1%; mantle cell lymphoma,; the Arthralgia was 21.6%; the Asthenia was 14.9%. Also, where the note is “myelodysplastic syndrome”, the Backache is 20.9%, the Constipation is 23.6%, the Cough was 19.6% and the Cramp is 18.2%. In addition, where the note is “myelodysplastic syndrome”, the Diarrhea is 48.6%, the Epistaxis was 14.9%, the Fatigue is 31.1% and the Fever is given as 20.9%. Also, where the note is “myelodysplastic syndrome”, the Hypokalemia was 17.1%; myelodysplastic syndrome, 10.8%; mantle cell lymphoma,; the Insomnia was 10.1%; the Nasopharyngitis was 23%; the “Neutropenia, All grades” value is reported as 58.8%. Further, under “myelodysplastic syndrome”, the “Neutropenia, Grade 3 or 4” value is on record as 53.4%; the Peripheral edema was 20.3%; the Pneumonia is listed as 11.5%; the Pruritus is given as 41.9%. For the setting “myelodysplastic syndrome”, the Rash is reported as 35.8%; the “Thrombocytopenia, All grades” value is 21.5%; myelodysplastic syndrome, 61.5%; mantle cell lymphoma,; the “Thrombocytopenia, Grade 3 or 4” value is given as 12.2%; myelodysplastic syndrome, 50%; mantle cell lymphoma,; the Upper respiratory infection is given as 14.9%.
In the case of `NC(=O)N1c2ccccc2C=Cc2ccccc21` [Equetro], for the setting “in vivo”, the Asthenia is given as 8%, the Ataxia was 15%, the Blurred vision is listed as 6% and the Constipation was 10%. Besides, where the note is “in vivo”, the Dizziness was 44%, the Nausea was 29%, the Pruritus is on record as 8% and the Rash is 7%. For the same compound, under “in vivo”, the Vomiting is 18% and the Xerostomia is reported as 8%. For the same compound, where the note is “listed without frequency”, the “Common side effect, Cardiovascular” value is on record as “Cardiovascular: Hypotension”; the “Common side effect, Neurologic” value is recorded as “Somnolence”; the “Common side effect, Ophthalmic” value is “Nystagmus”; the “Serious side effect, Dermatologic” value is reported as “Stevens-Johnson syndrome”. For the setting “listed without frequency”, the “Serious side effect, Gastrointestinal” value is given as “Gastrointestinal: Pancreatitis”; the “Serious side effect, Immunologic” value is “Immunologic: Drug hypersensitivity syndrome”; the “Serious side effect, Neurologic” value is “Neurologic: Acute intermittent porphyria”; the “Serious side effect, Other” value is “Other: Angioedema”. Moreover, the “Serious side effect, Respiratory” value (listed without frequency) is on record as “Respiratory: Pulmonary hypersensitivity”.
With `CN(C)CCC[C@@]1(c2ccc(F)cc2)OCc2cc(C#N)ccc21` [Escitalopram (Lexapro)], for the setting “in vivo”, the Abdominal pain result is “Gastrointestinal: Abdominal pain (2%), Constipation (3% to 6%),”; the Constipation entry is reported as “Gastrointestinal: Abdominal pain (2%), Constipation (3% to 6%),”; the Diaphoresis result is given as “Dermatologic: Diaphoresis (3% to 8%)”; the Diarrhea result is “Diarrhea (6% to 14%), Indigestion (2% to 6%), Nausea (15% to”. Further, where the note is “in vivo”, the Disorder of ejaculation entry is “Reproductive: Disorder of ejaculation (9% to 14%), Erectile”; the Dizziness result was “Neurologic: Dizziness (4% to 7%), Headache (24%), Insomnia (7%”; the Erectile dysfunction result is “dysfunction (3%), Orgasm incapacity (females, 2% to 6%),”; the Fatigue entry was “Other: Fatigue (5% to 8%)”. Further, under “in vivo”, the Headache result is listed as “Neurologic: Dizziness (4% to 7%), Headache (24%), Insomnia (7%”; the Indigestion entry is “Diarrhea (6% to 14%), Indigestion (2% to 6%), Nausea (15% to”; the Insomnia entry is given as “Neurologic: Dizziness (4% to 7%), Headache (24%), Insomnia (7%”; the Orgasm incapacity entry is “dysfunction (3%), Orgasm incapacity (females, 2% to 6%),”. Besides, for the setting “in vivo”, the Reduced libido result was “Reduced libido (3% to 7%)”; the Somnolence entry is “to 14%), Somnolence (4% to 13%)”; the Vomiting is recorded as ≤ 18%), Vomiting (up to 3%), Xerostomia (4% to 9%); the Xerostomia is reported as 18%), Vomiting (up to 3%), Xerostomia (4% to 9%).
